Assay results taken from patent US7576207B2, “Spirocyclic heterocyclic derivatives and methods of their use” (Adolor Corporation, priority 2006, dated 2009).

How the values were obtained:
[1] = target: T1, cloned human δ opioid receptors (Homo sapiens, UniProt P41143); assay: [3H]diprenorphine receptor binding, δ opioid receptor; conditions: inhibition of [3H]diprenorphine binding; Cheng-Prusoff correction; read-out: affinity (expressed as Ki value), δ opioid receptor
T1 construct: expressed in transfected cells; host or cells: CHO cells
T1 sequence (P41143 whole entry): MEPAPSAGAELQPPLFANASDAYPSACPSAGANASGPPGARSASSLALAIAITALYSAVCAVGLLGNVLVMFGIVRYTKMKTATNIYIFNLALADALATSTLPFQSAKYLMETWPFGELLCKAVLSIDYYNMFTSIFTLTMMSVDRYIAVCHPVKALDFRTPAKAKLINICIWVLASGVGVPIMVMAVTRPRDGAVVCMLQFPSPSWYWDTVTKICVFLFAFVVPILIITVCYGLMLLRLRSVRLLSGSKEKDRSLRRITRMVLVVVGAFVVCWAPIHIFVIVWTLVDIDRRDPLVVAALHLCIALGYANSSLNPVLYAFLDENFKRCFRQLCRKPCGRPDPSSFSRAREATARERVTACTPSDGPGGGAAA
Protocol: (§1) The potencies of the final compounds found in Examples 1A-9D were determined by testing the ability of a range of concentrations of each compound to inhibit the binding of the non-selective opioid antagonist, [^3H]diprenorphine, to the cloned human μ, ? and δ opioid receptors, expressed in separate cell lines. IC50 values were obtained by nonlinear analysis of the data using GraphPad Prism version 3.00 for Windows (GraphPad Software, San Diego). Ki values were obtained by Cheng-Prusoff corrections of IC50 values.
(§2) The receptor binding method (DeHaven and DeHaven-Hudkins, 1998) was a modification of the method of Raynor et al. (1994). […] The filters were rinsed 4 times with 1 mL of cold 50 mM Tris HCl, pH 7.8 and radioactivity remaining on the filters determined by scintillation spectroscopy. Nonspecific binding was determined by the minimum values of the titration curves and was confirmed by separate assay wells containing 10 μM naloxone. Ki values were determined by Cheng-Prusoff corrections of IC50 values derived from nonlinear regression fits of 12 point titration curves using GraphPad Prism® version 3.00 for Windows (GraphPad Software, San Diego, Calif.).
(§3) To determine the equilibrium dissociation constant for the inhibitors (Ki), radioligand bound (cpm) in the presence of various concentrations of test compounds was measured. […]

[2] = target: T2, cloned human μ opioid receptors (Homo sapiens, UniProt P35372); assay: [3H]diprenorphine receptor binding, μ opioid receptor; conditions: inhibition of [3H]diprenorphine binding; Cheng-Prusoff correction; read-out: affinity (expressed as Ki value), μ opioid receptor
T2 construct: expressed in transfected cells; host or cells: CHO cells
T2 sequence (P35372 whole entry): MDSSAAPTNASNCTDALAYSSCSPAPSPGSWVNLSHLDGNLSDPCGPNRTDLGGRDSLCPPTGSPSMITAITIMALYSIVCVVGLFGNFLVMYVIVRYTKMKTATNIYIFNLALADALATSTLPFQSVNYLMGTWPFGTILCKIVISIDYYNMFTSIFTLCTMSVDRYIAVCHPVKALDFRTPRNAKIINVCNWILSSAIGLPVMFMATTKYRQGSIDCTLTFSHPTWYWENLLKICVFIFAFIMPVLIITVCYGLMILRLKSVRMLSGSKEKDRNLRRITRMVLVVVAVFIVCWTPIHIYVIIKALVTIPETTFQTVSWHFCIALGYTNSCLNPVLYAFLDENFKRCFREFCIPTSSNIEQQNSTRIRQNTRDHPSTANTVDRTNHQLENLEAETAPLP
Protocol: as §1, §2, §3

[3] = target: T3, cloned human κ opioid receptors (Homo sapiens, UniProt P41145); assay: [3H]diprenorphine receptor binding, κ opioid receptor; conditions: inhibition of [3H]diprenorphine binding; Cheng-Prusoff correction; read-out: affinity (expressed as Ki value), κ opioid receptor
T3 construct: expressed in transfected cells; host or cells: CHO cells
T3 sequence (P41145 whole entry): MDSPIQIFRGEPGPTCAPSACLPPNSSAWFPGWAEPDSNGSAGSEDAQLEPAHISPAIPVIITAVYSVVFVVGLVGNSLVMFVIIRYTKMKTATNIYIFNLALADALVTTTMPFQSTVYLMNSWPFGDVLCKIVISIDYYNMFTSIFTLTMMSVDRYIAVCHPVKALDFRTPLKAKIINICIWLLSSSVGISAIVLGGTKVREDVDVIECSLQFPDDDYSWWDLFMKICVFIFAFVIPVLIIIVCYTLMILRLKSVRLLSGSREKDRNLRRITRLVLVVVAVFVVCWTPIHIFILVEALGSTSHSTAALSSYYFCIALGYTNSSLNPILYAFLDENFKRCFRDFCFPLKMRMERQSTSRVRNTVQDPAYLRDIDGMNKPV
Protocol: as §1, §2, §3

[4] = target: T1, cloned human δ opioid receptors; assay: Receptor-mediated [35S]GTPγS binding, δ opioid receptor; assay type: biochemical; conditions: stimulation of [35S]GTPγS binding to membranes containing cloned human δ opioid receptors; read-out: in vitro δ agonist activity EC50
Protocol: The potency and efficacy of compounds at each of the receptors are assessed by modifications of the methods of Selley, et al., 1997 and Traynor and Nahorski, 1995 using receptor-mediated [S]GTPγS binding in the same membrane preparations used to measure receptor binding. Assays are carried out in 96-well FlashPlates® (Perkin Elmer Life Sciences, Inc, Boston, Mass.). Membranes prepared from CHO cells expressing the appropriate receptor (50-100 μg of protein) are added to assay mixtures containing agonist with or without antagonists, 100 pM [^35S]GTPγS (approx. 100,000 dpm), 3.0 μM GDP, 75 mM NaCl, 15 mM MgCl2, 1.0 mM ethylene glycol-bis(β-aminoethyl ether)-N,N,N′,N′-tetracetic acid, 1.1 mM dithiothreitol, 10 μg/mL leupeptin, 10 μg/mL pepstatin A, 200 μg/mL bacitracin, and 0.5 μg/mL aprotinin in 50 mM Tris-HCl buffer, pH 7.8. After incubation at room temperature for one hour, the plates are sealed, centrifuged at 800×g in a swinging bucket rotor for 5 minutes and bound radioactivity determined with a TopCount microplate scintillation counter (Packard Instrument Co., Meriden, Conn.).
EC50 values for agonists are determined from nonlinear regression fits of 8- or 12-point titration curves to the 4-parameter equation for a sigmoidal dose-response with a slope factor of 1.0 using GraphPad Prism® version 3.00 for Windows (GraphPad Software, San Diego, Calif.).

Work on `CCNC(=O)c1ccc2c(c1)C(CCCCC(=O)N(CC)CC)CC1(CCNCC1)C2` (stereo not shown) [Example 9D, 4-[(4-N,N-diethylaminocarbonyl)butyl]-spiro[6-N-ethylcarbonyl-1,2,3,4-tetrahydronaphthalene-2,4′-piperidine]] yielded a Ki [1] of 0.47 nM, a Ki [2] of 632 nM and a Ki [3] of 696 nM. For the same molecule, the EC50 [4] was 8.1 nM.
